# Experimental data reported in patent publication US8247407B2, priority 2007, dated 2012).
# Counter-ions that a name gives are not always drawn.
# Legend:
# [1] = system: rats with alloxan diabetes; experiment: Hypoglycemic activity, alloxan diabetes model in rats (Example 1); assay type: in vivo, rat
# Method: The pharmaceutical compositions for determination of anti-diabetic action had the following composition: active compound—1 g, potato starch—1 g, water—100 ml.
# (§1) The comparison of anti-diabetic action of compounds was carried out using a standard model of alloxan diabetes and metmorphin as a comparative drug. The alloxan diabetes was induced by a single subcutaneous injection of water solution of alloxan hydrate (ICN Biomedicals, USA) at a dose of 150 mg/kg to rats weighting 180-200 g that have fasted for 24 hours. The following animal groups were studied: intact rats, diabetic non-treated rats, diabetic rats receiving Polfa-Kutno Ltd.″ metmorphin daily (for 23 days, 200 mg/kg); diabetic rats receiving daily (for 20 days) the abovementioned pharmaceutical compositions containing, as an active components, the compounds described in this invention: MC-200-MC-225. The compounds were administered intragastrically once a day in starch gel at a dose of 50 mg/kg rat weight.
# (§2) The experimental drug doses were selected assuming the expected therapeutic doses for man and previously determined toxic doses (LD50 of studied compounds was approximately 500-1,000 mg/kg). The metmorphin dose for rats was extrapolated from the therapeutic dose for man. Drug administration was started on the third day after alloxan injection when blood glucose level increased approximately 3-fold as compared to control value. Each group consisted of 20 animals of both genders.
# [2] = system: white rats with experimental diabetes (alloxan diabetes); experiment: Anti-diabetic, hypolipidemic and hypocholesteremic activity, alloxan diabetes model in rats (Example 2); assay type: in vivo, rat; conditions: compounds 50 mg/kg, metmorphin 200 mg/kg daily
# Method: as §1, §2
# Pharmaceutical compositions for determination of anti-diabetic action had the same composition as that given in Example I.
# The comparison of the anti-diabetic action of compounds was carried out using a standard model of alloxan diabetes, as described in Example I, and metmorphin as a comparative drug.
# In the course of experiment, the following parameters were recorded: animal general condition, water consumption, body mass, levels of glucose, total lipids, tri-glycerides, serum blood cholesterol, and glycosylated hemoglobin, using the generally accepted techniques (Laboratory methods of studies in clinical practice, V. V. Menshikov, Ed., Moscow, “Medicine”, 1987).
# [3] = diabetic rats' blood, in 10 days, compounds 50 mg/kg intragastrically once a day in starch gel, metmorphin 200 mg/kg daily
# [4] = diabetic rats' blood, in 20 days, compounds 50 mg/kg intragastrically once a day in starch gel, metmorphin 200 mg/kg daily
SMILES,"Glucose content, mmol/l, in 10 days [1, 3] [mmol/L]","Glucose content, mmol/l, in 20 days [1, 4] [mmol/L]",other results
"CCOC(=O)c1c(C[S+]([O-])Cc2ccccc2OC)n(C)c2cc(Br)c(O)c(CNC(=N)N)c12 (stereo not drawn) [MC-218, 1-methyl-2-(o-methoxy)-benzylsulfinylmethyl-3-carbethoxy-4-guanidinomethyl-5-hydroxy-6-bromoindole hydrochloride]",7.2 ± 0.4,7.1 ± 0.4,
"CCOC(=O)c1c(CSc2ccccc2)n(C)c2cc(C#N)c(O)c(CN(C)C)c12 [MC-216, 1-methyl-2-phenylthiomethyl-3-carbethoxy-4-dimethylaminomethyl-5-hydroxy-6-cyano indole]",8.4 ± 0.4,8.1 ± 0.4,
"CCOC(=O)c1c(CSc2ccc(C)cc2)n(C)c2cc(Br)c(O)c(CN(C)C)c12 [MC-201, 1-methyl-2-p-toluilthiomethyl-3-carbethoxy-4-dimethyl-aminomethyl-5-hydroxy-6-bromoindole]",6.4 ± 0.4,6.2 ± 0.3,
"CCOC(=O)c1c(CS(=O)(=O)c2ccccc2)n(C)c2cc(Br)c(O)c(CN(C)C)c12 [MC-222, 1-methyl-2-phenylsulfonylmethyl-3-carbethoxy-4-dimethylaminomethyl-5-hydroxy-6-bromoindole]",6.4 ± 0.3,6.2 ± 0.3,
"CCOC(=O)c1c(CN(C)C)n(C)c2cc(-c3cccnc3)c(O)c(CN3CCCC3)c12 [MC-211, 1-methyl-2-dimethylaminomethyl-3-carbethoxy-4-pyrrolidinomethyl-5-hydroxy-6-(pyridine-3-yl)indole trihydrochloride]",5.0 ± 0.2,4.8 ± 0.2,
"CCOC(=O)c1c(CSCc2ccccc2)n(C2CC2)c2cc(Br)c(O)c(CNC(=N)N)c12 [MC-219, 1-cyclopropyl-2-benzylthiomethyl-3-carbethoxy-4-guanidinomethyl-5-hydroxy-6-bromoindole]",,,"Glucose content, mmol/l, in 10 days ([1]; rat, in vivo): 9.3 ± 0.6 mmol/L; Glucose content, mmol/l, in 20 days ([1]; rat, in vivo): 9.0 ± 0.5 mmol/L"
"CCOC(=O)c1c(CN2CCCC2)n(C)c2cc(-c3cccnc3)c3c(c12)CN(C)CO3 [MC-213, 9-carbethoxy-2,7-dimethyl-5-pyridine-3-yl-8-[(pyrrolidine-1-yl)methyl]-1,2,3,7-tetrahydro[1,3]oxazino [5,6-e] indole trihydrochloride]",,,"Body mass ([2]; in 10 days): 185 ± 5 g; Cholesterol ([2]; in 10 days): 2.7 ± 0.5 mmol/L; Daily water consumption ([2]; in 10 days): 26 ± 5 mL; Glucose ([2]; in 10 days): 5.8 ± 0.3 mmol/L; Glycosylated hemoglobin ([2]; in 10 days): 6.4 ± 0.3 mol %; Percent of survived rats ([2]; in 10 days): 90%; Total lipids ([2]; in 10 days): 10.5 ± 0.5 g/L; Tri-glycerides ([2]; in 10 days): 2.5 ± 0.3 mmol/L; β-lipoproteins ([2]; in 10 days): 2.2 ± 0.2 g/L; Body mass ([2]; in 20 days): 183 ± 10 g; Cholesterol ([2]; in 20 days): 1.5 ± 0.2 mmol/L; Daily water consumption ([2]; in 20 days): 25 ± 6 mL; Glucose ([2]; in 20 days): 5.5 ± 0.3 mmol/L; Glycosylated hemoglobin ([2]; in 20 days): 6.2 ± 0.5 mol %; Percent of survived rats ([2]; in 20 days): 75%; Total lipids ([2]; in 20 days): 10.4 ± 1.0 g/L; Tri-glycerides ([2]; in 20 days): 1.7 ± 0.2 mmol/L; β-lipoproteins ([2]; in 20 days): 2.1 ± 0.2 g/L; Glucose content, mmol/l, in 10 days ([1]; rat, in vivo): 5.8 ± 0.4 mmol/L; Glucose content, mmol/l, in 20 days ([1]; rat, in vivo): 5.5 ± 0.3 mmol/L"
"CCOC(=O)c1c(C[S+]([O-])c2ccccc2)n(C)c2cc(Br)c(O)cc12 (stereo not drawn) [MC-225, 1-methyl-2-phenylsulfinylmethyl-3-carbethoxy-5-hydroxy-6-bromoindole]",8.2 ± 0.5,7.9 ± 0.4,
"CCOC(=O)c1c(CSc2ccccc2)n(Cc2ccccc2)c2cc(Br)c(O)c(CN(C)C)c12 [MC-205, 1-benzyl-2-phenylthiomethyl-3-carbethoxy-4-dimethylaminomethyl-5-hydroxy-6-bromoindole]",8.4 ± 0.6,8.1 ± 0.5,
"CCOC(=O)c1c(C[S+]([O-])Cc2ccc(F)cc2)n(C)c2cc(Br)c(O)c(CN3CCOCC3)c12 (stereo not drawn) [MC-220, 1-methyl-2-(p-fluor)-benzylsulfinylmethyl-3-carbethoxy-4--4-morpholinomethyl-5-hydroxy-6-bromoindole hydrochloride]",5.9 ± 0.2,5.8 ± 0.2,
"CCOC(=O)c1c(CN2CCCC2)n(C)c2cc(-c3cccnc3)c(O)c(CN(C)C)c12 [MC-212, 1-methyl-2-pyrrolidinomethyl-3-carbethoxy-4-dimethylaminomethyl-5-hydroxy-6-(pyridine-3-yl)indole trihydrochloride]",5.2 ± 0.3,5.1 ± 0.3,
"CCOC(=O)c1c(CSc2ccccc2)n(-c2ccc(C)cc2)c2cc(Br)c(O)c(CN(C)C)c12 [MC-204, 1-p-toluyl-2-phenylthiomethyl-3-carbethoxy-4-dimethylaminomethyl-5-hydroxy-6-bromoindole]",6.4 ± 0.3,6.2 ± 0.3,
"CCOC(=O)c1c(CN(C)C)n(C)c2cc(-c3cccnc3)c(O)cc12 [MC-208, 1-methyl-2-dimethylaminomethyl-3-carbethoxy-5-hydroxy-6-(pyridine-3-yl)indole]",9.8 ± 0.4,9.5 ± 0.4,
"CCOC(=O)c1c(CS(=O)(=O)c2ccccc2)n(C)c2cc(-c3cccnc3)c(O)c(CN(C)C)c12 [MC-210, 1-methyl-2-phenylsulfonylmethyl-3-carbethoxy-4-dimethylaminomethyl-5-hydroxy-6-(pyridine-3-yl)indole]",5.4 ± 0.2,5.3 ± 0.3,
"CCOC(=O)c1c(CSc2ccc(CC)cc2)n(C)c2cc(Br)c(O)c(CN(C)C)c12 [MC-202, 1-methyl-2-(p-ethyl)-phenyl-thiomethyl-3-carbethoxy-4-dimethylaminomethyl-5-hydroxy-6-bromoindole]",7.3 ± 0.5,7.0 ± 0.4,
"CCOC(=O)c1c(C[S+]([O-])c2ccccc2)n(C)c2cc(Br)c(O)c(CN(C)C)c12 (stereo not drawn) [MC-223, 1-methyl-2-phenylsulfinylmethyl-3-carbethoxy-4-dimethylaminomethyl-5-hydroxy-6-bromoindole]",8.4 ± 0.6,8.2 ± 0.6,
CCOC(=O)c1c(CN(C)C)n(C)c2cc(-c3cccnc3)c3c(c12)CN(C)CO3,5.6 ± 0.3,5.4 ± 0.5,
"CCOC(=O)c1c(CS(=O)(=O)c2ccccc2)n(C)c2cc(-c3cccnc3)c(O)c(CNC)c12 [MC-214, 1-methyl-2-phenylsulfonylmethyl-3-carbethoxy-4-methylaminomethyl-5-hydroxy-6-pyridinyl-3 indole dihydrochloride]",10.2 ± 0.8,9.9 ± 0.7,
"CCOC(=O)c1c(CSc2ccccc2)n(C)c2cc(-c3cccnc3)c(O)c(CN(C)C)c12 [MC-215, 1-methyl-2-phenylthiomethyl-3-carbethoxy-4-dimethylaminomethyl-5-hydroxy-6-pyridinyl-3 indole]",5.6 ± 0.2,5.4 ± 0.3,
"CCOC(=O)c1c(CSCc2ccccc2)n(C)c2cc(Br)c(O)c(CN(C)C)c12 [MC-206, 1-methyl-2-benzylthiomethyl-3-carbethoxy-4-dimethylaminomethyl-5-hydroxy-6-bromoindole]",11.2 ± 0.7,10.8 ± 0.6,
"CCOC(=O)c1c(C[S+]([O-])Cc2ccc(F)c(F)c2)n(C2CC2)c2cc(Br)c(O)c(CN3CCN(C)CC3)c12 (stereo not drawn) [MC-221, 1-cyclopropyl-2-(3,4-difluor)benzylsulfinyl-methyl-3-carbethoxy-4-(N-methyl)-piperazinomethyl-5-hydroxy-6-bromoindole dihydrochloride]",7.3 ± 0.4,7.2 ± 0.4,
